Data reported in patent US20230036854A1, “HETEROCYCLIC SPIRO-COMPOUNDS AS AM2 RECEPTOR INHIBITORS” (THE UNIVERSITY OF SHEFFIELD, priority 2018, published 2023).

Each compound was assayed against T1, AM2 receptor (1321N1 cells transfected with CALCRL+RAMP3) (Homo sapiens, UniProt O60896+Q16602) (assay: AM2 receptor inhibition, LANCE cAMP agonist-antagonist competition assay). Conditions: inhibition of AM induced cAMP activation, read-out: AM2 D2 protocol: pIC50 (converted).
T1 construct: host or cells: 1321N1 cells
T1 sequence (Q16602 23-461): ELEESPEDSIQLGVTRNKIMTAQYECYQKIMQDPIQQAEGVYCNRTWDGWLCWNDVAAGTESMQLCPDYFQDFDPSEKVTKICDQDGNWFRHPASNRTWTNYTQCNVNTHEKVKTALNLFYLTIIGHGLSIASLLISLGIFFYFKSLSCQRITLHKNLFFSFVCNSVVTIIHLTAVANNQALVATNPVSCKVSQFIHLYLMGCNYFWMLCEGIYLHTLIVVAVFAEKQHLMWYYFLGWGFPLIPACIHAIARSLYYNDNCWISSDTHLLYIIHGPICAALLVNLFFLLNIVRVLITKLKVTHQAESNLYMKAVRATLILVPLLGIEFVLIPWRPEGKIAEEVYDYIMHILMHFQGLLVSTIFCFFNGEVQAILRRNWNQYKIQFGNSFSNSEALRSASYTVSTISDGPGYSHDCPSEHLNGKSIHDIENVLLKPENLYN
T1 sequence (O60896 24-148): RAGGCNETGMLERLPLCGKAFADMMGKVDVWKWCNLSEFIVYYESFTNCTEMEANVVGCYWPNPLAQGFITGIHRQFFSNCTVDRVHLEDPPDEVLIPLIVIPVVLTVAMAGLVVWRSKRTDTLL
Type: cell-based
Protocol: Compounds were assessed for their ability to inhibit ligand-induced elevations of cAMP, using the Perkin Elmer LANCE cAMP assay using commercially-available cells expressing a specific receptor of interest using the following general procedure:
Compounds were prepared in dimethyl sulfoxide (DMSO—99.9% pure) (Sigma Aldrich, Cat #: D4540) added to powder stocks to produce a 20 mM solution (100% DMSO) that was sonicated at 37° C. for 10 minutes to fully dissolve the compounds. The 20 mM stocks were diluted further in DMSO to produce a 2 mM solution that was sonicated at 37° C. for 10 minutes. 2 mM stocks were dissolved in assay/stimulation buffer to produce a 400 μM solution that was sonicated at 37° C. for 10 minutes for all cAMP assays. All stocks were stored at −20° C. Then serial dilution (Dilution factor: 10) was performed to achieve the desire experimental concentrations.
Competition assays were performed according to the manufactures instructions using LANCE® TR-FRET cAMP assay kit (Perkin Elmer, Cat #: AD0264). Serial dilutions (3 μl/well) of the molecules were plated in a 384-well OptiPlate (Perkin Elmer, Cat #: 6007299) in duplicates. Appropriate controls (100% stimulation: Forskolin and 0% stimulation: Vehicle control) (6 μl/well) were included in each plate for data normalization. Following the compound addition, 6 μl of G-protein coupled receptor overexpressing cells/Alexa Fluor antibody solution (1:100 dilution) was added in each well at a desired density of 2500cells/well. The overexpressing cell lines were purchased from DiscoveRx, Birmingham, UK. After spinning the plate at 1000 rpm for 1 minute and vortexing briefly, the cells were pre-incubated with the compounds for 30 minutes at room temperature (covered). Then 3 μl of the equivalent peptide ligand (EC50 dose) was added to all the wells except vehicle and forskolin controls. The plate were then spun down at 1000 rpm for 1 minute and once finished they were vortexed briefly and covered. Cells were stimulated in the presence of the ligands for 15 minutes at room temperature. After stimulation 12 μl of detection mix (Europium-Chelate streptavidin/biotinylated cAMP tracer solution) was added to all wells and incubated for 60 minutes at room temperature. The plate was then read on the Enspire multimode Plate reader (Perkin Elmer), at; 320/340 nm excitation and 615/665 nm emission was recorded.
Assay/Stimulation Buffer (30 mL)—pH 7.4 • 28 mL Hank's Balanced salt solution (+MgCl2, +CaCl2)—(Thermo Fisher Cat #:14170112) • 150 μl HEPES (1M)—(Thermo Fisher Cat #:15630080) • 400 μl Stabilizer (DTPA) Purified BSA (7.5%)—(Perkin Elmer, Cat #: CR84-100)
The ability of a compound to inhibit the AM induced cAMP activation in AM2 receptor-expressing cells (1321N1 cells transfected with CALCRL+RAMP3, sourced from DiscoverX catalogue number 95-0169C6) was assessed using the protocol above.

SMILES	IC50
CNCc1ccccc1CN(CC(=O)Nc1ccc2c(c1)C[C@@]1(C2)C(=O)Nc2ncccc21)C(=O)C1(C)CCN(C(=O)c2cnccn2)CC1 [Example 19, (R)-4-Methyl-N-(2-((methylamino)methyl)benzyl)-N-(2-oxo-2-((2′-oxo-1,1′,2′,3-tetrahydrospiro[indene-2,3′-pyrrolo[2,3-b]pyridin]-5-yl)amino)ethyl)-1-(pyrazine-2-carbonyl)piperidine-4-carboxamide]	0.00447 µM
CCC1(C(=O)N(CC(=O)Nc2ccc3c(c2)C[C@@]2(C3)C(=O)Nc3ncccc32)Cc2ccccc2CNC)CCN(C(=O)C(C)(C)C(F)(F)F)CC1 [Example 98, (R)-4-Ethyl-N-(2-((methylamino)methyl)benzyl)-N-(2-oxo-2-((2′-oxo-1,1′,2′,3-tetrahydrospiro[indene-2,3′-pyrrolo[2,3-b]pyridin]-5-yl)amino)ethyl)-1-(3,3,3-trifluoro-2,2-dimethylpropanoyl)piperidine-4-carboxamide]	0.0617 µM
CCC1(C(=O)N(CC(=O)Nc2ccc3c(c2)C[C@@]2(C3)C(=O)Nc3ncccc32)Cc2ccccc2CNC)CCN(C(=O)C2CCCC2)CC1 [Example 75, (R)-1-(Cyclopentanecarbonyl)-4-ethyl-N-(2-((methylamino)methyl)benzyl)-N-(2-oxo-2-((2′-oxo-1,1′,2′,3-tetrahydrospiro[indene-2,3′-pyrrolo[2,3-b]pyridin]-5-yl)amino)ethyl)piperidine-4-carboxamide]	0.00575 µM
CCC1(C(=O)N(CC(=O)Nc2ccc3c(c2)C[C@@]2(C3)C(=O)Nc3ncccc32)Cc2ccccc2CNC)CCN(C(=O)c2cc(C)n[nH]2)CC1 [Example 71, (R)-4-Ethyl-1-(3-methyl-1H-pyrazole-5-carbonyl)-N-(2-((methylamino)methyl)benzyl)-N-(2-oxo-2-((2′-oxo-1,1′,2′,3-tetrahydrospiro[indene-2,3′-pyrrolo[2,3-b]pyridin]-5-yl)amino)ethyl)piperidine-4-carboxamide]	0.00851 µM
CNCc1ccccc1CN(CC(=O)Nc1ccc2c(c1)C[C@@]1(C2)C(=O)Nc2ncccc21)C(=O)C1(C)CCN(C(=O)C[C@H]2CCNC2)CC1 [Example 11, 4-Methyl-N-(2-((methylamino)methyl)benzyl)-N-(2-oxo-2-(((R)-2′-oxo-1,1′,2′,3-tetrahydrospiro[indene-2,3′-pyrrolo[2,3-b]pyridin]-5-yl)amino)ethyl)-1-(2-((R)-pyrrolidin-3-yl)acetyl)piperidine-4-carboxamide]	0.00646 µM
CCC1(C(=O)N(CC(=O)Nc2ccc3c(c2)C[C@@]2(C3)C(=O)Nc3ncccc32)Cc2ccccc2CNC)CCN(C(=O)[C@@H]2COCCN2)CC1 [Example 93, 4-Ethyl-N-(2-((methylamino)methyl)benzyl)-1-((S)-morpholine-3-carbonyl)-N-(2-oxo-2-(((R)-2′-oxo-1,1′,2′,3-tetrahydrospiro[indene-2,3′-pyrrolo[2,3-b]pyridin]-5-yl)amino)ethyl)piperidine-4-carboxamide]	0.0186 µM
CNCc1ccccc1CN(CC(=O)Nc1ccc2c(c1)C[C@@]1(C2)C(=O)Nc2ncccc21)C(=O)C1(C)CCN(C(=O)Cc2ccncc2)CC1 [Example 13, (R)-4-Methyl-N-(2-((methylamino)methyl)benzyl)-N-(2-oxo-2-((2′-oxo-1,1′,2′,3-tetrahydrospiro[indene-2,3′-pyrrolo[2,3-b]pyridin]-5-yl)amino)ethyl)-1-(2-(pyridin-4-yl)acetyl)piperidine-4-carboxamide]	0.0155 µM

Next, values leading:

IC50	SMILES
0.148 µM	CC(=O)N1CCC(C)(C(=O)N(CC(=O)Nc2ccc3c(c2)C[C@@]2(C3)C(=O)Nc3ncccc32)Cc2ccccc2CN)CC1 [Example 132, (R)-1-Acetyl-N-(2-(aminomethyl)benzyl)-4-methyl-N-(2-oxo-2-((2′-oxo-1,1′,2′,3-tetrahydrospiro[indene-2,3′-pyrrolo[2,3-b]pyridin]-5-yl)amino)ethyl)piperidine-4-carboxamide]
0.00145 µM	CCC1(C(=O)N(CC(=O)Nc2ccc3c(c2)C[C@@]2(C3)C(=O)Nc3ncccc32)Cc2ccccc2CNC)CCN(C(=O)N(C)C)CC1 [Example 99, (R)-4-Ethyl-N1, N1-dimethyl-N4-(2-((methylamino)methyl)benzyl)-N4-(2-oxo-2-((2′-oxo-1,1′,2′,3-tetrahydrospiro[indene-2,3′-pyrrolo[2,3-b]pyridin]-5-yl)amino)ethyl)piperidine-1,4-dicarboxamide]
0.0245 µM	CCOC(=O)N1CCC(CC)(C(=O)N(CC(=O)Nc2ccc3c(c2)C[C@@]2(C3)C(=O)Nc3ncccc32)Cc2ccccc2CNC)CC1 [Example 115, (R)-Ethyl 4-ethyl-4-((2-((methylamino)methyl)benzyl)(2-oxo-2-((2′-oxo-1,1′,2′,3-tetrahydrospiro[indene-2,3′-pyrrolo[2,3-b]pyridin]-5-yl)amino)ethyl)carbamoyl)piperidine-1-carboxylate]
0.00832 µM	CNCc1ccccc1CN(CC(=O)Nc1ccc2c(c1)C[C@@]1(C2)C(=O)Nc2ncccc21)C(=O)C1(C)CCN(C(=O)C(F)F)CC1 [Example 17, (R)-1-(2,2-Difluoroacetyl)-4-methyl-N-(2-((methylamino)methyl)benzyl)-N-(2-oxo-2-((2′-oxo-1,1′,2′,3-tetrahydrospiro[indene-2,3′-pyrrolo[2,3-b]pyridin]-5-yl)amino)ethyl)piperidine-4-carboxamide]
0.102 µM	CCC1(C(=O)N(CC(=O)Nc2ccc3c(c2)C[C@@]2(C3)C(=O)Nc3ncccc32)Cc2ccccc2CNC(C)C)CCN(C(C)=O)CC1 [Example 141, (R)-1-Acetyl-4-ethyl-N-(2-((isopropylamino)methyl)benzyl)-N-(2-oxo-2-((2′-oxo-1,1′,2′,3-tetrahydrospiro[indene-2,3′-pyrrolo[2,3-b]pyridin]-5-yl)amino)ethyl)piperidine-4-carboxamide]
0.02 µM	CCC1(C(=O)N(CC(=O)Nc2ccc3c(c2)C[C@@]2(C3)C(=O)Nc3ncccc32)Cc2ccccc2CNC)CCN(C(=O)OC)CC1 [Example 116, (R)-Methyl 4-ethyl-4-((2-((methylamino)methyl)benzyl)(2-oxo-2-((2′-oxo-1,1′,2′,3-tetrahydrospiro[indene-2,3′-pyrrolo[2,3-b]pyridin]-5-yl)amino)ethyl)carbamoyl)piperidine-1-carboxylate]
0.00776 µM	CNCc1ccccc1CN(CC(=O)Nc1ccc2c(c1)C[C@@]1(C2)C(=O)Nc2ncccc21)C(=O)C1(C)CCNCC1 [Example 3, (R)-4-Methyl-N-(2-((methylamino)methyl)benzyl)-N-(2-oxo-2-((2′-oxo-1,1′,2′,3-tetrahydrospiro[indene-2,3′-pyrrolo[2,3-b]pyridin]-5-yl)amino)ethyl)piperidine-4-carboxamide]
0.302 µM	CNCc1ccccc1CN(CC(=O)Nc1ccc2c(c1)C[C@@]1(C2)C(=O)Nc2ncccc21)C(=O)C1(C)CCCN(C(C)=O)C1 (stereo partly drawn) [Example 145, 1-Acetyl-3-methyl-N-(2-((methylamino)methyl)benzyl)-N-(2-oxo-2-(((R)-2′-oxo-1,1′,2′,3-tetrahydrospiro[indene-2,3′-pyrrolo[2,3-b]pyridin]-5-yl)amino)ethyl)piperidine-3-carboxamide]
0.135 µM	CNCc1ccccc1CN(CC(=O)Nc1ccc2c(c1)C[C@@]1(C2)C(=O)Nc2ncccc21)C(=O)C1(C)CCN(CC(=O)O)CC1 [Example 43, (R)-2-(4-Methyl-4-((2-((methylamino)methyl)benzyl)(2-oxo-2-((2′-oxo-1,1′,2′,3-tetrahydrospiro[indene-2,3′-pyrrolo[2,3-b]pyridin]-5-yl)amino)ethyl)carbamoyl)piperidin-1-yl)acetic Acid]
0.000631 µM	CNCc1ccccc1CN(CC(=O)Nc1ccc2c(c1)CC1(C2)C(=O)Nc2ncccc21)C(=O)C1(C)CCN(C(=O)CN)CC1 (centres unmarked) [Example 22, 1-(2-Aminoacetyl)-4-methyl-N-(2-((methylamino)methyl)benzyl)-N-(2-oxo-2-((2′-oxo-1,1′,2′,3-tetrahydrospiro[indene-2,3′-pyrrolo[2,3-b]pyridin]-5-yl)amino)ethyl)piperidine-4-carboxamide]
